Data on two compounds can be found in ChEMBL document CHEMBL1150406, “Novel triterpenoid from Citrus aurantium L. possesses chemopreventive properties against human colon cancer cells” (Bioorg Med Chem, 2008).

Active and inactive are the calls of the source. The rule behind the calls is not given here.

Series [1] deals with HT-29. The experiment in a line: Cytotoxicity against human HT29 cells after 48 hrs by MTT assay. The class given is functional, cell-based. In general terms: Tetrazolium dyes change colour on reduction, which living cells bring about.
Series [2] concerns HT-29. The experiment in a line: Cell cycle arrest in human HT29 cells by accumulation at S phase at 10 uM after 48 hrs by flow cytometry. The class given is functional.
Series [3] relates to HT-29. The experiment in a line: Cell cycle arrest in human HT29 cells by accumulation at G0/G1 phase at 10 uM after 48 hrs by flow cytometry. The class given is functional. On the technique in general: In flow cytometry, cells or beads pass a laser one at a time.
Series [4] has as its system HT-29. The experiment in a line: Cell cycle arrest in human HT29 cells by accumulation at G0/G1 phase at 5 uM after 48 hrs by flow cytometry. Type of series: functional.
For series [5], the system named is HT-29. The experiment in a line: Cell cycle arrest in human HT29 cells by accumulation at S phase at 5 uM after 48 hrs by flow cytometry. Type of series: functional.
Series [6] has as its system HT-29. The experiment in a line: Cell cycle arrest in human HT29 cells by accumulation at G2/M phase at 10 uM after 48 hrs by flow cytometry. The class given is functional.
Series [7] concerns HT-29. The experiment in a line: Cytotoxicity against human HT29 cells at 2.5 uM after 48 hrs by MTT assay. Type of series: functional, cell-based.
The test system of series [8] is HT-29. The experiment in a line: Cell cycle arrest in human HT29 cells by accumulation at G2/M phase at 5 uM after 48 hrs by flow cytometry. Type of series: functional.
The subject of series [9] is HT-29. The experiment in a line: Cytotoxicity against human HT29 cells at 5 uM after 72 hrs by MTT assay. Type of series: functional.
Series [10] has as its system HT-29. The experiment in a line: Cell cycle arrest in human HT29 cells assessed as background aggregates and debris at 5 uM after 48 hrs by flow cytometry. Type of series: functional.
In series [11] the test system is HT-29. The experiment in a line: Cell cycle arrest in human HT29 cells assessed as background aggregates and debris at 10 uM after 48 hrs by flow cytometry. The class given is functional.
The nature of series [12]: Growth inhibition of monkey COS1 cells by flow cytometry. Type of series: cell-based. To be noted: cos-1.
The test system of series [13] is HT-29. The experiment in a line: Cytotoxicity against human HT29 cells at 10 uM after 24 hrs by MTT assay. Type of series: functional, cell-based.
The subject of series [14] is HT-29. The experiment in a line: Induction of apoptosis in human HT29 cells at 10 uM by nuclear staining method. Type of series: functional, cell-based.

For the compound `CC(C)(O)[C@@H]1CC(=O)[C@]2(C)[C@H](CC[C@@]3(C)[C@H](C4=CC(O)OC4=O)OC(=O)[C@H]4O[C@]432)[C@]12COC(=O)C[C@@H]2O` (stereo partly specified) [ICHANEXIC ACID], the result in series [1], in series [7], in [13] and in series [14] was Active. The Activity in [2] was 6%; in [3], 70.2%; in series [4] it was 91.3%; in series [5], 4.1%; in series [6], 23.8%; in series [8], 8.7%. The Activity in [9] is on record as 20%; in [10] it was 42.9%; in [11], 75.1%; in series [12] it was “Not Active”.

Take `CC1(C)OC[C@@]2([C@@H](O)CC(=O)O)[C@H]3CC[C@@]4(C)[C@H](c5ccoc5)OC(=O)[C@H]5O[C@]54[C@]3(C)C(=O)C[C@@H]12` [ISOLIMONOIC ACID]: the Activity amounted to 12.7% in series [2]; 69.9% in [3]; 91% in series [4]; 4% in series [5]; 17.4% in [6]; 6.1% in series [8]. The Activity is on record as 20% in series [9], 34.8% in [10], 75.5% in series [11] and “Not Active” in [12]. The outcome in [7] and in series [14] was Active.
